Measured values reported in article PMC10861747, “In vitro evaluation of the reductive carbonyl idarubicin metabolism to evaluate inhibitors of the formation of cardiotoxic idarubicinol via carbonyl and aldo–keto reductases” (Archives of Toxicology, 2024).

Columns and labels:
AKR1C3 [1] = biological target: T1, AKR1C3 (Homo sapiens, UniProt P42330); test: idarubicinol formation (UPLC-MS/MS) in AKR1C3-transfected HEK293 cells versus empty-vector cells, […] idarubicin; assay type: cell-based
T1 construct: AKR1C3 human ORF-Clone transiently over-expressed in HEK293 cells
T1 sequence (P42330 1-323): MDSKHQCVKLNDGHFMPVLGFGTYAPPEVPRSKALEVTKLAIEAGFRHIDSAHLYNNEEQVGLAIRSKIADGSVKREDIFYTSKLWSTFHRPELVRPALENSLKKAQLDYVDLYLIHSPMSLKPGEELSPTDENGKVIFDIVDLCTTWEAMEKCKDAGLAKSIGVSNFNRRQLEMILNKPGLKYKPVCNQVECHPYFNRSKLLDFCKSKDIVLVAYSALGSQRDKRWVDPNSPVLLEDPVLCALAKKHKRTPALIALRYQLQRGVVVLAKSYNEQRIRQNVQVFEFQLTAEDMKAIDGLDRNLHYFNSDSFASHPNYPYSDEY

AKR1C3 [2] = biological target: T1, AKR1C3; test: inhibition of idarubicinol formation (UPLC-MS/MS) in HEK293 cells over-expressing AKR1C3, compared with empty-vector control; assay type: cell-based

SMILES | idarubicinol formation (UPLC-MS/MS) in AKR1C3-transfected HEK293 cells versus em (AKR1C3 [1]) | IC50 (AKR1C3 [2]) [µM]
CC(=O)[C@]1(O)Cc2c(O)c3c(c(O)c2[C@@H](O[C@H]2C[C@H](N)[C@H](O)[C@H](C)O2)C1)C(=O)c1ccccc1C3=O [idarubicin] | the over-expression lead to a significantly higher idarubicinol formation in HEK293 cells | 
O=C1C[C@@]2(C(=O)N1)C(=O)N(Cc1ccc(Br)cc1F)C(=O)c1cccn12 [ranirestat] |  | 0.5 ± 0.1
